Laboratory results published in article PMC7011996 (Journal of Enzyme Inhibition and Medicinal Chemistry, 2017).

Target: T1, hCA XII (Homo sapiens, UniProt O43570)
T1 construct: gene CA12
Experiment: stopped-flow CO2 hydration assay
Type: biochemical

T1 sequence (O43570 25-354): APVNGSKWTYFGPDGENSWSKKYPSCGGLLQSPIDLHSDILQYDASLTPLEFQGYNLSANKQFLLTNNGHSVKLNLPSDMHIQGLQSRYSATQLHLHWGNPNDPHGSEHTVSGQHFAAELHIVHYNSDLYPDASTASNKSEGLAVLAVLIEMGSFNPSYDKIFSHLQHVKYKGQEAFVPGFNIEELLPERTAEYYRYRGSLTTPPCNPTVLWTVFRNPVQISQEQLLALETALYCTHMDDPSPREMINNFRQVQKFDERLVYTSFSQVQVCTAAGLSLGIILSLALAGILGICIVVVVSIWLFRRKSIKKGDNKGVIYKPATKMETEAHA

NS(=O)(=O)c1ccc(CC[n+]2c(-c3ccccc3)cc(-c3ccccc3)cc2-c2ccccc2)cc1 [compound 2, 1-(4-sulfamoylphenyl-ethyl)-2,4,6-triphenylpyridinium perchlorate]
Ki: 12.5 nM
